Source: article PMC7318034, “Safety, Pharmacokinetics, and Drug-Drug Interaction Potential of Intravenous Durlobactam, a β-Lactamase Inhibitor, in Healthy Subjects” (Antimicrobial Agents and Chemotherapy, 2020)

Experiment: Urine PK (urinary excretion, renal clearance) in healthy subjects
Conditions: for CL renal: human, urine, intravenous, CLr
[1] = part C cohort 13, Day 5 (DUR 1 g + sulbactam 1 g)
[2] = part A cohort 6, single 4 g, n=4
[3] = part A cohort 7, single 8 g, n=5
[4] = part A cohort 8 (elderly), single 1 g, n=5
[5] = part B cohort 9, first 48 hours, dose over 48 hours 2.00 g (8 doses)
[6] = part B cohort 9, following the final dose on Day 8, 0.250 g
[7] = part B cohort 10, first 48 hours, dose over 48 hours 4.00 g (8 doses)
[8] = part B cohort 10, following the final dose on Day 8, 0.500 g
[9] = part B cohort 11, first 48 hours, dose over 48 hours 8.00 g (8 doses)
[10] = part B cohort 11, following the final dose on Day 8, 1.000 g
[11] = part B cohort 12, first 48 hours, dose over 48 hours 16.00 g (8 doses)
[12] = part B cohort 12, following the final dose on Day 8, 2.000 g
[13] = part C cohort 13, Day 1 (DUR 1 g alone)
[14] = part C cohort 14, Day 1 (DUR 1 g alone), mean
[15] = part D cohort 15, Day 1, DUR + SUL + IMI-CIL q6h, mean, n=10
[16] = part D cohort 15, Day 11, DUR + SUL + IMI-CIL q6h, mean, n=10

- CL renal (0.5 g, median, part B cohort 10, first 48 hours, dose over 48 hours 4.00 g (8 doses)): 291 mL/min
- CL renal (0.5 g, median, part B cohort 10, following the final dose on Day 8, 0.500 g): 96.2 mL/min
- CL renal (1 g, mean, part A cohort 8 (elderly), single 1 g, n=5): 55.4 mL/min
- CL renal (1 g, mean, part B cohort 11, first 48 hours, dose over 48 hours 8.00 g (8 doses)): 364 mL/min
- CL renal (1 g, mean, part B cohort 11, following the final dose on Day 8, 1.000 g): 93.6 mL/min
- CL renal (1 g, median, part A cohort 8 (elderly), single 1 g, n=5): 66 mL/min
- CL renal (1 g, median, part B cohort 11, following the final dose on Day 8, 1.000 g): 98 mL/min
- CL renal (2 g, mean, part B cohort 9, first 48 hours, dose over 48 hours 2.00 g (8 doses)): 238 mL/min
- CL renal (2 g, mean, part B cohort 12, following the final dose on Day 8, 2.000 g): 108 mL/min
- CL renal (2 g, median, part B cohort 9, first 48 hours, dose over 48 hours 2.00 g (8 doses)): 220 mL/min
- CL renal (2 g, median, part B cohort 12, following the final dose on Day 8, 2.000 g): 109 mL/min
- CL renal (4 g, mean, part A cohort 6, single 4 g, n=4): 132 mL/min
- CL renal (4 g, mean, part B cohort 10, first 48 hours, dose over 48 hours 4.00 g (8 doses)): 272 mL/min
- CL renal (4 g, median, part A cohort 6, single 4 g, n=4): 134 mL/min
- CL renal (8 g, mean, part A cohort 7, single 8 g, n=5): 109 mL/min
- CL renal (8 g, median, part A cohort 7, single 8 g, n=5): 130 mL/min
- CL renal (8 g, median, part B cohort 11, first 48 hours, dose over 48 hours 8.00 g (8 doses)): 392 mL/min
- CL renal (16 g, mean, part B cohort 12, first 48 hours, dose over 48 hours 16.00 g (8 doses)): 307 mL/min
- CL renal (16 g, median, part B cohort 12, first 48 hours, dose over 48 hours 16.00 g (8 doses)): 307 mL/min
- CL renal [1]: 81 mL/min
- Fe, mean [2]: 76.4345%
- Fe, median [2]: 77.8635%
- Fe, mean [3]: 55.0196%
- Fe, median [3]: 58.8180%
- Fe, mean [4]: 58.2604%
- Fe, median [4]: 57.3870%
- intact drug renally excreted (part A single dose): approximately 50%
- Fe, mean [5]: 47.662%
- Fe, median [5]: 51.57%
- Fe, mean [6]: 56.473%
- Fe, median [6]: 60.48%
- Fe, mean [7]: 53.939%
- Fe, median [7]: 57.21%
- Fe, mean [8]: 67.523%
- Fe, median [8]: 65.88%
- Fe, mean [9]: 56.699%
- Fe, median [9]: 65.06%
- Fe, mean [10]: 65.711%
- Fe, median [10]: 67.09%
- Fe, mean [11]: 55.354%
- Fe, median [11]: 49.25%
- Fe, mean [12]: 69.336%
- Fe, median [12]: 63.93%
- Fe [13]: 40.964 (6.869) %
- Fe [1]: 49.963 (9.530) %
- Fe [14]: 42.664%
- Fe [15]: 43.518%
- Fe [16]: 49.158%
SMILES: CC1=C[C@@H]2CN(C(=O)N2OS(=O)(=O)O)[C@@H]1C(N)=O [DUR, Durlobactam]
- Ae, mean [2]: 3057.384 mg
- Ae, median [2]: 3114.55 mg
- Ae, mean [3]: 4401.576 mg
- Ae, median [3]: 4705.45 mg
- Ae, mean [4]: 582.604 mg
- Ae, median [4]: 573.87 mg
- Ae, mean [5]: 953.242 mg
- Ae, median [5]: 1031.41 mg
- Ae, mean [6]: 141.184 mg
- Ae, median [6]: 151.20 mg
- Ae, mean [7]: 2157.551 mg
- Ae, median [7]: 2288.24 mg
- Ae, mean [8]: 337.614 mg
- Ae, median [8]: 329.39 mg
- Ae, mean [9]: 4535.949 mg
- Ae, median [9]: 5204.73 mg
- Ae, mean [10]: 657.112 mg
- Ae, median [10]: 670.87 mg
- Ae, mean [11]: 8856.594 mg
- Ae, median [11]: 7879.32 mg
- Ae, mean [12]: 1386.730 mg
- Ae, median [12]: 1278.52 mg
- Ae [13]: 409.644 (68.690) mg
- Ae [1]: 499.627 (95.305) mg
- Ae [14]: 426.643 mg
- Ae [15]: 3481.42 mg
- Ae [16]: 491.58 mg
